The record followed here is patent publication US20140323504A1, “Pyrazolo[4,3-c]Pyridine Derivatives As Kinase Inhibitors” (Cellzome Limited, priority 2011, published 2014).

In one experiment the target is T1, Tyk2 (Homo sapiens, UniProt P29597).
T1 construct: endogenous in cells; host or cells: mixed Molt4/Ramos cell lysate (1:2)
The experiment can be described thus: Kinobeads assay with antibody detection, TYK2. To be noted: mixed Molt4/Ramos lysate, read-out: Tyk2 inhibition value (IC50). Type of experiment: binding. As to the method:
(§1) The compounds of the present invention as described in the previous examples were tested in a Kinobeads™ assay as described for ZAP-70 (WO-A 2007/137867). Briefly, test compounds (at various concentrations) and the affinity matrix with the immobilized aminopyrido-pyrimidine ligand 24 were added to cell lysate aliquots and allowed to bind to the proteins in the lysate sample. After the incubation time the beads with captured proteins were separated from the lysate. Bound proteins were then eluted and the presence of JAK1; JAK2, JAK3 and TYK2 was detected and quantified using specific antibodies in a dot blot procedure and the Odyssey infrared detection system. Dose response curves for individual kinases were generated and IC50 values calculated. Kinobeads™ assays for ZAP-70 (WO-A 2007/137867) and for kinase selectivity profiling (WO-A 2006/134056) have been previously described.
(§2) 5×DP buffer: 250 mM Tris-HCl pH 7.4, 25% Glycerol, 7.5 mM MgCl2, 750 mM NaCl, 5 mM Na3VO4; filter the 5×DP buffer through a 0.22 μm filter and store in aliquot at −80° C. The 5×DP buffer is diluted with H2O to 1×DP buffer containing 1 mM DTT and 25 mM NaF.
(§3) Stock solutions of test compounds were prepared in DMSO. In a 96 well plate 30 μL solution of diluted test compounds at 5 mM in DMSO were prepared. Starting with this solution a 1:3 dilution series (9 steps) was prepared. For control experiments (no test compound) a buffer containing 2% DMSO was used.
(§4) Molt4 cells (ATCC catalogue number CRL-1582) and Ramos cells (ATCC catalogue number CRL-1596) were grown in 1 L Spinner flasks (Integra Biosciences, #182101) in suspension in RPMI 1640 medium (Invitrogen, #21875-034) supplemented with 10% Fetal Bovine Serum (Invitrogen) at a density between 0.15×10^6 and 1.2×10^6 cells/mL. Cells were harvested by centrifugation, washed once with 1×PBS buffer (Invitrogen, #14190-094) and cell pellets were frozen in liquid nitrogen and subsequently stored at −80° C. Cells were homogenized in a Potter S homogenizer in lysis buffer: 50 mM Tris-HCl, 0.8% NP40, 5% glycerol, 150 mM NaCl, 1.5 mM MgCl2, 25 mM NaF, 1 mM sodium vanadate, 1 mM DTT, pH 7.5. One complete EDTA-free tablet (protease inhibitor cocktail, Roche Diagnostics, 1873580) per 25 mL buffer was added. The material was dounced 10 times using a mechanized POTTER S, transferred to 50 mL falcon tubes, incubated for 30 minutes on ice and spun down for 10 minutes at 20,000 g at 4° C. (10,000 rpm in Sorvall SLA600, precooled). The supernatant was transferred to an ultracentrifuge (UZ)-polycarbonate tube (Beckmann, 355654) and spun for 1 hour at 100.000 g at 4° C. (33.500 rpm in Ti50.2, precooled). The supernatant was transferred again to a fresh 50 mL falcon tube, the protein concentration was determined by a Bradford assay (BioRad) and samples containing 50 mg of protein per aliquot were prepared. The samples were immediately used for experiments or frozen in liquid nitrogen and stored frozen at −80° C.
(§5) Cell lysate (approximately 50 mg protein per plate) was thawed in a water bath at room temperature and then stored on ice. To the thawed cell lysate 1×DP 0.8% NP40 buffer containing protease inhibitors (1 tablet for 25 mL buffer; EDTA-free protease inhibitor cocktail; Roche. Diagnostics 1873580) was added in order to reach a final protein concentration of 10 mg/mL total protein. The diluted cell lysate was stored on ice. Mixed Molt4Ramos lysate was prepared by combining one volume of Molt4 lysate and two volumes of Ramos lysate (ratio 1:2).
(§6) Plates were sealed and incubated for 3 hours in a cold room on a plate shaker (Heidolph tiramax 1000) at 750 rpm. Afterwards the plate was washed 3 times with 230 μL washing buffer (1×DP 0.4% NP40). The filter plate was placed on top of a collection plate (Greiner bio-one, PP-microplate 96 well V-shape, 65120) and the beads were then eluted with 20 μL of sample buffer (100 mM Tris, pH 7.4, 4% SDS, 0.00025% bromophenol blue, 20% glycerol, 50 mM DTT). […]

The target in a further experiment is T2, JAK3 (Homo sapiens, UniProt P52333).
T2 sequence (P52333 1-1124): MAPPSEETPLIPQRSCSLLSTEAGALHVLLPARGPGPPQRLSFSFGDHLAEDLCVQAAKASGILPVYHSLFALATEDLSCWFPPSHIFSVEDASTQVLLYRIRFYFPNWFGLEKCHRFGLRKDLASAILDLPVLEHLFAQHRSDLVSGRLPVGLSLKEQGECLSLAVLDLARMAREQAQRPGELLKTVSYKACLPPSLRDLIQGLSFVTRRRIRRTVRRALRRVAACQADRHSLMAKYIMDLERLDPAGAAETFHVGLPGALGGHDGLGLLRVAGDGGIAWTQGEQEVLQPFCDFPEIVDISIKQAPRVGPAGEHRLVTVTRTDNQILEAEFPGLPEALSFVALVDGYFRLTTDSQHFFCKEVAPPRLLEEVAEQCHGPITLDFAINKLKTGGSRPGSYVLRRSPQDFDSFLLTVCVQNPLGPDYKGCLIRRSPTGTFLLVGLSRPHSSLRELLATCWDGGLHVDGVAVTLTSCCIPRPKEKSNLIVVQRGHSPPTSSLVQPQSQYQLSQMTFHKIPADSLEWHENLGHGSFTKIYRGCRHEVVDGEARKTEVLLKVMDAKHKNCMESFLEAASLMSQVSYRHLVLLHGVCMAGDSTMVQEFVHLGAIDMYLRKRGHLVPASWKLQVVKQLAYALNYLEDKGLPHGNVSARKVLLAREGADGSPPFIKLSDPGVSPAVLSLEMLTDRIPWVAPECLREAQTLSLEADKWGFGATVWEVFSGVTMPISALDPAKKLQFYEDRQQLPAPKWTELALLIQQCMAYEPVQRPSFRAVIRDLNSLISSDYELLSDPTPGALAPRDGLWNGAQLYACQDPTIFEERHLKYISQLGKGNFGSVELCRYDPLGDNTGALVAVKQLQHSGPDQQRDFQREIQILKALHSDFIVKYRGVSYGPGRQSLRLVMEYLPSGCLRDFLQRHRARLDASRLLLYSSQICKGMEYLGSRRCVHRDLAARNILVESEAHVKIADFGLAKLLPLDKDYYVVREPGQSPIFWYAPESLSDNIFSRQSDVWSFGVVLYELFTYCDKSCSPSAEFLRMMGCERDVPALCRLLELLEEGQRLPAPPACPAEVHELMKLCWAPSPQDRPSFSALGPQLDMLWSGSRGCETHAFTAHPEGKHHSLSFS
In words: Kinobeads assay with antibody detection, JAK3. The format is binding. On the set-up: endogenous in cells; host or cells: mixed Molt4/Ramos cell lysate (1:2). The note with it: mixed Molt4/Ramos lysate, read-out: JAK3 inhibition value (IC50). As to the method:
as §1, §2, §3, §4, §5, §6

T1 sequence (P29597 whole entry): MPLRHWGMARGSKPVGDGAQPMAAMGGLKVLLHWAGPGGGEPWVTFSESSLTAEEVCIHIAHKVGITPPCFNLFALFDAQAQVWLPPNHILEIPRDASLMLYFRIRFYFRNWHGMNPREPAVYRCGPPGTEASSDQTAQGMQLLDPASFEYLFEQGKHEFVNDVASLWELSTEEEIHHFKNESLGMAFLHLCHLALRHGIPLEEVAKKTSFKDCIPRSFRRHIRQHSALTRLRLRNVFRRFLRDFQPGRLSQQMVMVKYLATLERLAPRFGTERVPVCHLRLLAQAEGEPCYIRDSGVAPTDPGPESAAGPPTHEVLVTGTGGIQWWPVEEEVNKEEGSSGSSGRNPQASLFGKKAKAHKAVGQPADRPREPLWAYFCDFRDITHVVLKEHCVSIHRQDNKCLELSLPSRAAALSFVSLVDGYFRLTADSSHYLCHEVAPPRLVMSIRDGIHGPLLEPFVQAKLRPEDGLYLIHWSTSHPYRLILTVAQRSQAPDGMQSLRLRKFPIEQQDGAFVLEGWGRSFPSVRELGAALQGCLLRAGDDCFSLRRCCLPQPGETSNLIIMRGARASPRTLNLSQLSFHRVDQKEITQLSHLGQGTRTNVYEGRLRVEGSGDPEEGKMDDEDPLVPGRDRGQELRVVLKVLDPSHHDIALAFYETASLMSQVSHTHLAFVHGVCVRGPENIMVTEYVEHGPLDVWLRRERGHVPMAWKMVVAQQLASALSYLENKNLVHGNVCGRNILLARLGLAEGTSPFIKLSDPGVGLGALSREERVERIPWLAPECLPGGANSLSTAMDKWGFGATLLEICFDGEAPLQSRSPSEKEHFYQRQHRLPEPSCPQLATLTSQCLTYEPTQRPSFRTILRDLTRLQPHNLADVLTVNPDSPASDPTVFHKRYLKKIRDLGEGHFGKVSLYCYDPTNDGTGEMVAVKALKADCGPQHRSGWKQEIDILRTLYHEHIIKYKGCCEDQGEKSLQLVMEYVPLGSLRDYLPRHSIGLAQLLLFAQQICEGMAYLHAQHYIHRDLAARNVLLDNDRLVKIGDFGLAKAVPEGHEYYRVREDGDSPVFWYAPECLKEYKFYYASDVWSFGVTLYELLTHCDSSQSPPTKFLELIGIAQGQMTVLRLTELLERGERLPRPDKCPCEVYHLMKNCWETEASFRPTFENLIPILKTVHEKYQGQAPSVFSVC

The term IC50 denotes the concentration at which inhibition is half-maximal. For the compound `C#CC(=O)Nc1cccc(Cn2ncc3cnc(Nc4cnn(C)c4)nc32)c1` [Example 3, N-(3-((6-((1-Methyl-1H-pyrazol-4-yl)amino)-1H-pyrazolo[3,4-d]pyrimidin-1-yl)methyl)phenyl)propiolamide], the IC50 on Tyk2 came to 6960 nM; at JAK3, 10 nM.

Turning to `C=CS(=O)(=O)Nc1cccc(Cn2ccc3cnc(Nc4cnn(C)c4)nc32)c1` [Example 7, N-(3-((2-((1-Methyl-1H-pyrazol-4-yl)amino)-7H-pyrrolo[2,3-d]pyrimidin-7-yl)methyl)phenyl)ethenesulfonamide], the concentration for half-maximal inhibition (IC50) at Tyk2 turned out to be 901 nM; at JAK3, 12 nM.

Regarding `C=CC(=O)Nc1cc(Cn2ncc3cnc(Nc4cnn(C)c4)nc32)ccc1F` [Example 2, […]], the IC50 is > 10000 nM on Tyk2 and 16 nM on JAK3.

Regarding `CC(=O)Nc1cccc(Cn2ncc3cnc(Nc4cnn(C)c4)nc32)c1` [compound 2, N-(3-((6-((1-methyl-1H-pyrazol-4-yl)amino)-1H-pyrazolo[3,4-d]pyrimidin-1-yl)methyl)phenyl)acetamide, reference compound], the IC50 is > 10000 nM on Tyk2 and 206 nM at JAK3.

As for `C=C(C)C(=O)Nc1cccc(Cn2ncc3cnc(Nc4cnn(C)c4)nc32)c1` [Example 5, N-(3-((6-((1-Methyl-1H-pyrazol-4-yl)amino)-1H-pyrazolo[3,4-d]pyrimidin-1-yl)methyl)phenyl)methacrylamide], the IC50 was > 10000 nM on Tyk2 and 57 nM at JAK3.

`C=CS(=O)(=O)Nc1cccc(Cn2ncc3cnc(Nc4cnn(C)c4)nc32)c1` [Example 4, N-(3-((6-((1-Methyl-1H-pyrazol-4-yl)amino)-1H-pyrazolo[3,4-d]pyrimidin-1-yl)methyl)phenyl)ethenesulfonamide]: the IC50 at Tyk2 stood at 6130 nM; on JAK3, 10 nM.

On to `C=CC(=O)Nc1cccc(Cn2ncc3cnc(Nc4cnn(C)c4)nc32)c1` [Example 1, N-(3-((6-((1-Methyl-1H-pyrazol-4-yl)amino)-1H-pyrazolo[3,4-d]pyrimidin-1-yl)methyl)phenyl)acrylamide], for which the IC50 at Tyk2 is > 10000 nM; at JAK3, 5 nM.
